Assay results reported in ChEMBL document CHEMBL5331131, “Discovery of Acyl-Indole Derivatives as Pan-Serotype Dengue Virus NS4B Inhibitors” (J Med Chem, 2023).
pEC50: −log10 of the molar value. In brackets after ≈: the same amount, converted by molar mass.

Key:
[1] = system: dengue virus type 2; assay: Antiviral activity against DENV-2 16681 expressing eGFP infected in african green monkey Vero cells incubated with cells for 24 hrs followed by viral infection measured after 3 days by laser microscopic analysis; assay type: functional, organism-based
[2] = Cytotoxicity against african green monkey Vero cells by ATPlite cell viability luminescence assay; assay type: toxicity, cell-based; settings: chlorocebus sabaeus
[3] = Microsomal stability in human liver microsomes assessed as intrinsic clearance preincubated for 5 mins followed by NADPH addition measured upto 60 mins by LC-MS/MS analysis; assay type: ADME, Microsome; settings: time < 65 min, read-out: CLH
[4] = Microsomal stability in rat liver microsomes assessed as intrinsic clearance preincubated for 5 mins followed by NADPH addition measured upto 60 mins by LC-MS/MS analysis; assay type: ADME, Microsome; settings: time < 65 min, read-out: CLH
[5] = Microsomal stability in mouse liver microsomes assessed as intrinsic clearance preincubated for 5 mins followed by NADPH addition measured upto 60 mins by LC-MS/MS analysis; assay type: ADME, Microsome; settings: time < 65 min, read-out: CLH
[6] = system: dengue virus type 1; assay: Antiviral activity against DENV-1 TC974#666 infected in african green monkey Vero cells incubated for 24 hrs measured after 3 days post infection; assay type: functional, organism-based; settings: TC974#666, Vero
[7] = system: dengue virus type 3; assay: Antiviral activity against DENV-3 H87 infected in african green monkey Vero cells incubated for 24 hrs measured after 3 days post infection; assay type: functional, organism-based
[8] = system: dengue virus type 4; assay: Antiviral activity against DENV-4 H241 infected in african green monkey Vero cells incubated for 24 hrs measured after 3 days post infection; assay type: functional, organism-based; settings: Dengue virus, H241, Vero
[9] = Clearance in Sprague-Dawley rat at 2.5 mg/kg, iv measured upto 24 hrs by LC-MS/MS analysis; assay type: ADME, organism-based; settings: in vivo
[10] = Clearance in CD-1 mouse at 2.5 mg/kg, iv measured for 0.12 to 24 hrs by LC-MS/MS analysis; assay type: ADME, organism-based; settings: in vivo, time 0.12-24 hrs
[11] = system: dengue virus type 2; assay: Antiviral activity against DENV-2 16681 infected in african green monkey Vero cells incubated for 24 hrs measured after 3 days post infection; assay type: functional, organism-based; settings: Dengue virus, 16681, Vero
[12] = Volume of distribution at steady state in Sprague-Dawley rat at 2.5 mg/kg, iv measured upto 24 hrs by LC-MS/MS analysis; assay type: ADME, organism-based; settings: in vivo, read-out: Vdss
[13] = Half life in Sprague-Dawley rat at 2.5 mg/kg, iv measured by LC-MS/MS analysis; assay type: ADME, organism-based; settings: in vivo
[14] = Cmax in Sprague-Dawley rat at 10 mg/kg, po measured upto 24 to 48 hrs by LC-MS/MS analysis; assay type: ADME, organism-based; parameters: time upper 48 hrs, dose 10 mg/kg, time lower 24 hrs, route po; settings: in vivo
[15] = AUC last in Sprague-Dawley rat at 10 mg/kg, po measured upto 24 to 48 hrs by LC-MS/MS analysis; assay type: ADME, organism-based; parameters: time upper 48 hrs, dose 10 mg/kg, time lower 24 hrs, route po; settings: in vivo
[16] = Oral bioavailability in Sprague-Dawley rat at 10 mg/kg measured upto 24 to 48 hrs by LC-MS/MS analysis; assay type: ADME, organism-based; settings: in vivo, time 24-48 hrs
[17] = Kinetic solubility of the compound in aqueous buffer at pH 7.4 measured after 4 hrs by UPLC/UV analysis; assay type: physicochemical; settings: read-out: Kinetic_solubility
[18] = Kinetic solubility of the compound in aqueous buffer at pH 4 measured after 4 hrs by UPLC/UV analysis; assay type: physicochemical; settings: read-out: Kinetic_solubility
[19] = Kinetic solubility of the compound in aqueous buffer at pH 2 measured after 4 hrs by UPLC/UV analysis; assay type: physicochemical; settings: read-out: Kinetic_solubility

Structure (SMILES)	pEC50 ([1]; Dengue virus, 16681, Vero)	CC50 [2]	microsomal CLint [3]	microsomal CLint [4]	microsomal CLint [5]	further results
COc1cc(NC(C(=O)c2c[nH]c3ccccc23)c2ccccc2)cc(OCCO)c1 (stereo not drawn)	7.31	21000 nM	< 8 µL/min/mg	37 µL/min/mg	201 µL/min/mg	pEC50 [6]: 6.74; pEC50 [7]: 6.00; pEC50 [8]: 5.41; clearance [9]: 34.7 mL/min/kg; clearance [10]: 54 mL/min/kg; pEC50 [11]: 7.49
COc1cc(NC(C(=O)c2c[nH]c3ccc(F)cc23)c2ccc(F)cc2)cc(OCCO)c1 (stereo not drawn)	7.80	14000 nM	< 8 µL/min/mg	10 µL/min/mg	50 µL/min/mg	–
COc1cc(NC(C(=O)c2c[nH]c3cc(F)ccc23)c2ccc(F)cc2OC)cc(OCCO)c1 (stereo not drawn)	8.40	8400 nM	< 8 µL/min/mg	30 µL/min/mg	26 µL/min/mg	pEC50 [8]: 6.06; clearance [9]: 39.2 mL/min/kg; pEC50 [11]: 8.05; Vd [12]: 7.6 L/kg; half-life [13]: 3.2 h; Cmax [14]: 135 ng/mL; AUC(0-t) [15]: 1110 ng·h/mL; bioavailability [16]: 26%; solubility kinetic at 4 h [17]: 18 µM (≈ 8.68 µg/mL); solubility kinetic at 4 h [18]: 18 µM (≈ 8.68 µg/mL); solubility kinetic at 4 h [19]: 69 µM (≈ 33.3 µg/mL)
COc1cc(NC(C(=O)c2c[nH]c3cc(Cl)ccc23)c2ccc(F)cc2OC)cc(OCCO)c1 (stereo not drawn)	8.70	5900 nM	< 8 µL/min/mg	24 µL/min/mg	< 8 µL/min/mg	–
COc1cc(NC(C(=O)c2c[nH]c3cc(F)ccc23)c2ccc(C)cc2OC)cc(OCCO)c1 (stereo not drawn)	–	–	–	–	–	pEC50 [8]: 6.02; pEC50 [11]: 8.15
COc1cc(NC(C(=O)c2c[nH]c3cc(F)ccc23)c2ccc(F)cc2OC(F)(F)F)cc(OCCO)c1 (stereo not drawn)	6.77	7800 nM	–	–	–	–
COc1cc(NC(C(=O)c2c[nH]c3cc(F)ccc23)c2ccc(C(F)(F)F)cc2OC)cc(OCCO)c1 (stereo not drawn)	–	–	–	–	–	pEC50 [8]: 6.11; pEC50 [11]: 8.52
COc1cc(NC(C(=O)c2c[nH]c3c(Cl)c(OC)ccc23)c2ccc(F)cc2OC)cc(OCCO)c1 (stereo not drawn)	9.00	8600 nM	< 8 µL/min/mg	37 µL/min/mg	9 µL/min/mg	–
COc1cc(NC(C(=O)c2c[nH]c3c(F)c(F)ccc23)c2ccc(F)cc2OC)cc(OCCO)c1 (stereo not drawn)	8.52	6600 nM	< 8 µL/min/mg	8 µL/min/mg	8 µL/min/mg	–
COc1cc(NC(C(=O)c2c[nH]c3cc(F)ccc23)c2ccc(F)cc2OCCO)cc(OCCO)c1 (stereo not drawn)	7.39	14000 nM	–	–	–	–
COc1cc(NC(C(=O)c2c[nH]c3cc(F)ccc23)c2ccc(F)cc2F)cc(OCCO)c1 (stereo not drawn)	8.05	13000 nM	–	–	–	–
COc1cc(NC(C(=O)c2c[nH]c3cc(F)ccc23)c2ccc(OC(F)(F)F)cc2OC)cc(OCCO)c1 (stereo not drawn)	–	–	–	–	–	pEC50 [8]: 5.46; pEC50 [11]: 7.66
COc1cc(NC(C(=O)c2c[nH]c3cc(F)c(F)cc23)c2ccc(F)cc2OC)cc(OCCO)c1 (single isomer, unassigned; (+))	8.52	6900 nM	< 8 µL/min/mg	44 µL/min/mg	10 µL/min/mg	–
COc1cc(NC(C(=O)c2c[nH]c3cc(F)ccc23)c2ccc(F)cc2)cc(OCCO)c1 (single isomer, unassigned; (+))	–	–	–	–	–	pEC50 ([1]; vero): 7.96
COc1cc(NC(C(=O)c2c[nH]c3cc(OC)c(C)cc23)c2ccc(F)cc2OC)cc(OCCO)c1 (single isomer, unassigned; (+))	8.52	7400 nM	< 8 µL/min/mg	< 8 µL/min/mg	< 8 µL/min/mg	clearance [9]: 13.6 mL/min/kg; Vd [12]: 6.5 L/kg; half-life [13]: 5.7 h; Cmax [14]: 350 ng/mL; AUC(0-t) [15]: 4660 ng·h/mL; bioavailability [16]: 40%; solubility kinetic at 4 h [17]: 5 µM (≈ 2.54 µg/mL); solubility kinetic at 4 h [18]: 5 µM (≈ 2.54 µg/mL); solubility kinetic at 4 h [19]: 65 µM (≈ 33.1 µg/mL)
COc1cc(NC(C(=O)c2c[nH]c3c(F)cc(C)cc23)c2ccc(F)cc2OC)cc(OCCO)c1 (single isomer, unassigned; (+))	8.30	5500 nM	10 µL/min/mg	13 µL/min/mg	10 µL/min/mg	–
COc1cc(NC(C(=O)c2c[nH]c3c(C)c(F)ccc23)c2ccc(F)cc2OC)cc(OCCO)c1 (single isomer, unassigned; (+))	8.70	5300 nM	< 8 µL/min/mg	< 8 µL/min/mg	< 8 µL/min/mg	clearance [9]: 16.4 mL/min/kg; Vd [12]: 8.5 L/kg; half-life [13]: 6.5 h; Cmax [14]: 573 ng/mL; AUC(0-t) [15]: 8290 ng·h/mL; bioavailability [16]: 88%; solubility kinetic at 4 h [17]: 2 µM (≈ 0.993 µg/mL); solubility kinetic at 4 h [18]: 3 µM (≈ 1.49 µg/mL); solubility kinetic at 4 h [19]: 34 µM (≈ 16.9 µg/mL)
COc1cc(NC(C(=O)c2c[nH]c3cc(OC)c(F)cc23)c2ccc(F)cc2OC)cc(OCCO)c1 (single isomer, unassigned; (+))	8.30	> 8600 nM	< 8 µL/min/mg	< 8 µL/min/mg	< 8 µL/min/mg	–
COc1cc(NC(C(=O)c2c[nH]c3c(C)c(Cl)ccc23)c2ccc(F)cc2OC)cc(OCCO)c1 (single isomer, unassigned; (+))	9.00	4100 nM	< 8 µL/min/mg	< 8 µL/min/mg	< 8 µL/min/mg	clearance [9]: 10.7 mL/min/kg; Vd [12]: 6.5 L/kg; half-life [13]: 7 h; Cmax [14]: 294 ng/mL; AUC(0-t) [15]: 7600 ng·h/mL; bioavailability [16]: 54%; solubility kinetic at 4 h [17]: < 0.1 µM; solubility kinetic at 4 h [18]: < 0.1 µM; solubility kinetic at 4 h [19]: 5 µM (≈ 2.56 µg/mL)
COc1cc(NC(C(=O)c2c[nH]c3c(C)c(OC)ccc23)c2ccc(F)cc2OC)cc(OCCO)c1 (single isomer, unassigned; (+))	9.00	8900 nM	< 8 µL/min/mg	17 µL/min/mg	< 8 µL/min/mg	–
COc1cc(NC(C(=O)c2c[nH]c3cc(F)ccc23)c2ccc(F)cc2Cl)cc(OCCO)c1 (single isomer, unassigned; (-))	8.22	8200 nM	–	–	–	–
COc1cc(NC(C(=O)c2c[nH]c3cc(F)ccc23)c2ccc(F)cc2)cc(OCCO)c1 (stereo in doubt)	–	13000 nM	< 8 µL/min/mg	< 8 µL/min/mg	26 µL/min/mg	pEC50 ([1]; vero): 7.82; pEC50 [6]: 7.31; pEC50 [7]: 6.38; pEC50 [8]: 6.06; clearance [9]: 13.9 mL/min/kg; clearance [10]: 37.1 mL/min/kg; pEC50 [11]: 7.92; Vd [12]: 7.3 L/kg; half-life [13]: 6 h; Cmax [14]: 295 ng/mL; AUC(0-t) [15]: 4370 ng·h/mL; bioavailability [16]: 40%
COc1cc(NC(C(=O)c2c[nH]c3cc(F)ccc23)c2ccc(Cl)cc2OC)cc(OCCO)c1 (stereo in doubt; 24)	–	–	–	–	–	pEC50 [8]: 6.44; pEC50 [11]: 9.00
COc1cc(NC(C(=O)c2c[nH]c3cc(F)ccc23)c2ccc(F)cc2)cc(OCCO)c1 (stereo in doubt; (-)-7b)	–	–	–	–	–	pEC50 ([1]; vero): 7.03
